In patent publication US10537561B2 (Novartis AG, priority 2011, dated 2020):

Key:
[1] = target: PDGFR-β (Homo sapiens, UniProt P09619); test: PDGFR-β inhibition; type: biochemical; conditions: read-out: PDGFR-β IC-50
[2] = target: CSF-1R (Homo sapiens, UniProt P07333); test: CSF-1R inhibition, biochemical assay
[3] = target: >200 miscellaneous kinases; test: Kinase selectivity panel; type: biochemical; conditions: read-out: IC50 values for most of >200 miscellaneous kinases
[4] = tested on: several hundred kinases in the Ambit kinase array; test: Ambit kinase array screen; type: binding; conditions: lower than 50% only against CSF-1R, PDGFRα and PDGFRβ
[5] = tested on: CSF-dependent cell proliferation; test: CSF-dependent cell proliferation; type: cell-based; conditions: read-out: CSF-dependent cell proliferation IC-50
[6] = tested on: Bone marrow-derived macrophages (BMDMs); test: BMDM proliferation/survival (MTT); type: cell-based, mouse
Description: (§1) Cell growth rate was determined using the MTT cell proliferation kit (Roche). […] Media was changed every 48 hours. BMDM and CRL-2467 cells were supplemented with 10 ng/ml and 30 ng/ml recombinant mouse CSF-1 respectively unless otherwise indicated. 10 μl of MTT labeling reagent was added to each well and then incubated for 4 hours at 37° C., followed by the addition of 100 μl MTT solubilization reagent overnight. The mixture was gently resuspended and absorbance was measured at 595 nm and 750 nm on a spectraMax 340pc plate reader (Molecular Devices).

[7] = tested on: mouse GBM cell cultures (GBM1-4); test: Mouse glioma cell line proliferation (MTT); type: cell-based
Description: (§2) For neurosphere formation the cell pellet was resuspended in neurosphere media consisting of mouse NSC Basal Media, NSC proliferation supplements, 10 ng/ml EGF, 20 ng/ml basic-FGF and 1 mg/ml Heparin (Stem Cell Technologies). Fresh media was added every 72 hours for 2 weeks. Primary neurospheres were collected, mechanically disaggregated to a single cell suspension and propagated by serial passaging. To generate glioma cell lines, secondary neurospheres were dissociated to single cell suspensions and cultivated in DMEM+10% FBS as a monolayer. Multiple glioma cell lines were derived from independent mice, denoted GBM1-4 herein. Glioma cells were infected with a pBabe-H2B-mCherry construct as described previously (O. Florey, et al., Nat Cell Biol 13, 1335 (2011)).
as §1

[8] = tested on: neurospheres derived from mouse RCAS-PDGF-B-HA/Nestin-Tv-a; Ink4a/Arf−/− GBMs; test: Secondary neurosphere formation assay; type: cell-based
Description: as §2
Media was changed every 48 hours. Secondary neurosphere formation was assayed by counting the number of neurospheres obtained after 2 weeks.

[9] = tested on: glioma in RCAS-PDGF-B-HA/Nestin-Tv-a; Ink4a/Arf−/− mice; test: Long-term survival trial in glioma model; type: in vivo, mouse
[10] = tested on: glioma in RCAS-PDGF-B-HA/Nestin-Tv-a; Ink4a/Arf−/− mice; test: Short-term trial, tumor volume by MRI; type: in vivo, mouse
Description: Tumor volume in the RCAS-PDGF-B-HA/Nestin-Tv-a; Ink4a/Arf^−/− mice was determined by MRI, and mice were added to the trial when this was at least 4.5 mm^3 or greater. […] MRI scans were performed on the day before treatment was initiated, at the mid-point of the treatment, and at the day before the end of the trial period.
The vehicle control, 20% captisol, was processed in the same manner.
To determine tumor volume, regions of interest (ROI) were circumscribed on T2 weighted images and their corresponding area in mm^2 was multiplied by the slice height of 0.7 mm. The total tumor volume is the sum of the ROI volume in each slice, and the volume for the first and last slice in which the tumor appear is halved to approximate the volume of a trapezoid. When tumor volume was in the range of 4.5-40 mm^3, animals were randomly assigned to treatment groups. […] A size-matched vehicle treated cohort was not included for this cohort having the larger starting tumor burden because these mice would not have been able to survive to the trial endpoint.

[11] = tested on: glioma in RCAS-PDGF-B-HA/Nestin-Tv-a; Ink4a/Arf−/− mice; test: Histologic analyses of tumors from short-term trial; type: in vivo, mouse; conditions: for Apoptosis (% CC3+) / Macrophages (% CD68+) / Total DAPI+ Cells / Tumor Cells (% Olig2+) / Phagocytic Capacity / Vasculature (CD31 MVD): vs vehicle
Description: The analyses were performed on tissues from the short-term trial (see Example 5), so that tumors from the different treatment groups could be compared at the same defined endpoint. Tumor cell density was examined using the oligodendrocyte marker Olig2, which has previously been used to identify glioma cells. […] (FIG. 6A).
To isolate tissues for snap freezing in liquid nitrogen, mice were euthanized by carbon dioxide asphyxiation or fully anesthetized with avertin (2,2,2-tribromoethanol, Sigma) and cervically dislocated prior to tissue harvest. For flow cytometry, mice were fully anesthetized with avertin and transcardially perfused with 20 ml of PBS. The brain was then isolated and the tumor macrodissected from the surrounding normal tissue. For proliferation analysis, mice were injected intraperitoneally with […] of bromodeoxyuridine (BrdU; Sigma) 2 hours prior to sacrifice. To isolate tissues for frozen histology, mice were fully anesthetized with avertin, transcardially perfused with 10 ml of PBS, followed by 10 ml of 4% paraformaldehyde in PBS (PFA). The brain was postfixed in PFA overnight at 4° C. while other tissues were cryopreserved in 30% sucrose at 4° C. After post-fixation, the brain was then transferred to 30% sucrose and incubated at 4° C. until the brain was fully equilibrated and sank to the bottom of the tube (typically 2 to 3 days). All tissues were then embedded in OCT (Tissue-Tek) and 10 μm cryostat tissue sections were used for all subsequent analysis.
For immunofluorescence, 10 μm thick frozen sections were thawed and dried at room temperature and then washed in PBS. For the standard staining protocol, tissue sections were blocked in 0.5% PNB in PBS for at least 1 hour at room temperature or up to overnight at 4° C., followed by incubation in primary antibody in 0.25% PNB for 2 hours at room temperature or overnight at 4° C. Sections were then washed in PBS and incubated with the appropriate fluorophore-conjugated secondary antibody (Molecular Probes) at a dilution 1:500 in 0.25% PNB for 1 hour at room temperature. After washing in PBS, tissue sections were counterstained with DAPI (5 mg/ml stock diluted 1:5000 in PBS) for 5 minutes prior to mounting with ProLong Gold Antifade mounting media (Invitrogen).
For angiogenesis and proliferation analysis, tissue sections were first subjected to citrate buffer based antigen retrieval by submerging in antigen unmasking solution (0.94% v/v in distilled water; Vector Laboratories) and microwaving for 10 minutes on half power, followed by cooling to room temperature for at least 30 minutes. For angiogenesis analysis, tissues were then washed in PBS and blocked with mouse Ig blocking reagent (Vector Laboratories) according to the manufacturer's instructions for 1 hour at room temperature. For proliferation analysis, after antigen retrieval, tissue sections were incubated with 2M HCl for 15 minutes at room temperature to denature DNA and then in neutralizing 0.1M sodium borate buffer (pH 8.5) for 5 minutes. After PBS washes, the rest of the staining was performed according to the standard protocol.
For staining for phagocytosis analysis, 10 μm thick frozen sections were thawed and dried at room temperature and then washed in PBS. Tissue sections were blocked in 0.5% PNB in PBS for at least 1 hour at room temperature, followed by incubation in rabbit anti-cleaved caspase-3 primary antibody diluted 1:500 in 0.5% PNB overnight at 4° C. The next day, slides were washed 6 times for 5 minutes in PBS prior to incubation with goat-anti-rabbit Alexa568 secondary antibody (1:500 in 0.5% PNB) for 1 hour at room temperature. Tissue sections were then washed 6 times for 5 minutes in PBS and blocked overnight at 4° C. in a new buffer of 5% donkey serum, 3% bovine serum albumin, and 0.5% PNB in PBS. […]

Sequence of PDGFR-β (P09619 33-1106, species assumed): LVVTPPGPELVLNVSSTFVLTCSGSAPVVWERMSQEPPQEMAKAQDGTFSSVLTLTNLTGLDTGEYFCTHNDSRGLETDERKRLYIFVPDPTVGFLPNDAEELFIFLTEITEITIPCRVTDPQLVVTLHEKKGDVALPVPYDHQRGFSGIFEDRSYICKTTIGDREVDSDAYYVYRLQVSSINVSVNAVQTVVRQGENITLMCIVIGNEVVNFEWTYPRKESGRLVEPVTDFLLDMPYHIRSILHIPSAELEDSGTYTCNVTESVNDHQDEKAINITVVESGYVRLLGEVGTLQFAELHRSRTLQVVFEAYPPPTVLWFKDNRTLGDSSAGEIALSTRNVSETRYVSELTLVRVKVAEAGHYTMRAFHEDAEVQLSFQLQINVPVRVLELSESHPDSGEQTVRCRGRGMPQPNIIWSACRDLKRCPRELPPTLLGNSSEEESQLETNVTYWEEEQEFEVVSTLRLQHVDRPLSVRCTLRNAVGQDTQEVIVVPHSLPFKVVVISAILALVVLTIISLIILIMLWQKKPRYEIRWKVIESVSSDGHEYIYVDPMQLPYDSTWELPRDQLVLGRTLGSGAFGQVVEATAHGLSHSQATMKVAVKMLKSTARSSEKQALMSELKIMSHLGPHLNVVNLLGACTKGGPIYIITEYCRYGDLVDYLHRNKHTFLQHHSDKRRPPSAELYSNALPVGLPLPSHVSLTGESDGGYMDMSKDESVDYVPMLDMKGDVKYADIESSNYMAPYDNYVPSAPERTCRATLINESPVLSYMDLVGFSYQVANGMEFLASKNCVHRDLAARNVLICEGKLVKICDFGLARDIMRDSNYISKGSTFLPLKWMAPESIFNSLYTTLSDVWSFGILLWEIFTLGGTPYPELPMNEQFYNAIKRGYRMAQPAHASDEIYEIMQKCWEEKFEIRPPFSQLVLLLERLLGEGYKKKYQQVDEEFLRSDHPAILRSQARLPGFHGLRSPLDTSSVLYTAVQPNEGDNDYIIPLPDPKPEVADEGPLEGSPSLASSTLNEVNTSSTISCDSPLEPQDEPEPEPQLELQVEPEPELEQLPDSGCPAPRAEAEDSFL
Sequence of CSF-1R (P07333 20-972, species assumed): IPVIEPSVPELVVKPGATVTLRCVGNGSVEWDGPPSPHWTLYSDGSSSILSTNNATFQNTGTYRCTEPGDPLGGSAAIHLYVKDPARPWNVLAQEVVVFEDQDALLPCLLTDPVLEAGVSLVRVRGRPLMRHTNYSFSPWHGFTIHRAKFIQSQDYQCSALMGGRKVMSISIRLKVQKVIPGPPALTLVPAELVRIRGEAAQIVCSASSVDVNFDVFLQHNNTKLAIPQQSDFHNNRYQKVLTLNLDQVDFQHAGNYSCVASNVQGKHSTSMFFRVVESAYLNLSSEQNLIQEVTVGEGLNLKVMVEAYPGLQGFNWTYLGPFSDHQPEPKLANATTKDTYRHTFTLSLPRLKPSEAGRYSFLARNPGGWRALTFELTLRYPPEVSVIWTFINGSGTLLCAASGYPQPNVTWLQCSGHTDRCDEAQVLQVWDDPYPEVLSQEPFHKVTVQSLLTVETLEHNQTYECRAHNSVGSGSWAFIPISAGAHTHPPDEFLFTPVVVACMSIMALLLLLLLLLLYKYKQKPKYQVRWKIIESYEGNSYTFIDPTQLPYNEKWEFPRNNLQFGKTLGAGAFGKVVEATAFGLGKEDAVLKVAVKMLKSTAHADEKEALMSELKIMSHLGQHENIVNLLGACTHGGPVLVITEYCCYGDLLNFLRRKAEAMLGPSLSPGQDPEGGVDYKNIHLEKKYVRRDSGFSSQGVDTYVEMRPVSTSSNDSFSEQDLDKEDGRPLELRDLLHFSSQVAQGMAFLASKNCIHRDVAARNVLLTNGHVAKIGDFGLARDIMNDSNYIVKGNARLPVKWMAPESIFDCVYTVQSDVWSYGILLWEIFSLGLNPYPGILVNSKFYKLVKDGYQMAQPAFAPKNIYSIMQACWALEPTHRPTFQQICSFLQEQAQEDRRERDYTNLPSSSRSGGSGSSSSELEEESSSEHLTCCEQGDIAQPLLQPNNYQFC

CCCNC(=O)c1cc(Oc2ccc3nc(N[C@@H]4CCCC[C@H]4O)sc3c2)ccn1
IC50 [1]: 7700 nM
IC50 [2]: 8 nM

CCn1cc(-c2cc(Oc3ccc4nc(N[C@@H]5CCCC[C@H]5O)sc4c3)ccn2)cn1
IC50 [1]: 1700 nM
IC50 [2]: 3 nM

CNC(=O)c1cc(Oc2ccc3nc(N[C@@H]4CCCC[C@H]4O)sc3c2)ccn1 [BLZ945]
IC50 [3]: > 10000 nM
activity in Ambit kinase array [4]: lower than 50 % of control
IC50 [5]: ~67 nM
rate of population doubling of BMDM cells ([6]; 67 nM): same effect on this rate as absence of CSF-1 stimulation
macrophage survival ([6]; 67 nM to 6700 nM, wild-type BMDMs): dramatically blocked macrophage survival
effects on tumor cell lines established from secondary mouse GBM neurospheres [7]: no differences
formation of secondary neurospheres [8]: not altered
total number and size of neurospheres ([8]; 670 nM): unaffected
treated cohort still alive (symptom-free survival) at trial endpoint ([9]; 200 mg/kg oral gavage daily, 26 weeks post-injection): 64.4%
mice with grade II glioma among 4 treated mice sacrificed for histology ([9]; 12 weeks, of 4 mice): one
tumor free mice among 4 treated mice sacrificed for histology ([9]; 12 weeks, of 4 mice): 3
treated animals either Grade II or tumor free ([9]; long-term trial): 80%
treated animals with Grade III tumor ([9]; long-term trial): 20%
tumor malignancy vs vehicle ([9]; long-term trial): significantly less malignant tumors
mice with no detectable lesions ([9]; mice alive at 26-week trial endpoint): 56%
treated animals with reduced tumor size ([10]; 6 days of dosing): 7 of 11
treated animals with tumor volume increases over 50% ([10]; 6 days, of 11 animals): two
tumor size by MRI ([10]; 7 day trial): no increase in tumor size
Tumor Volume (Day −1 vs Day 6) ([10]; BLZ945, Day 7, tumors 4.5-40 mm^3): +0.68%
treated mice with reduction of at least 30% in tumor size ([10]; large tumor cohort 48.7 to 132 mm^3, 6 days): 6 of 18
tumor volume change ([10]; large tumor cohort, 6 days): decreased in nearly all test animals
Apoptosis (% CC3+) ([11]; BLZ945, Day 3): +17-fold
Macrophages (% CD68+) ([11]; BLZ945, Day 3): +3-fold
Total DAPI+ Cells ([11]; BLZ945, Day 3): −72%
Tumor Cells (% Olig2+) ([11]; BLZ945, Day 3): −27%
Apoptosis (% CC3+) ([11]; BLZ945, Day 7): +6-fold
Macrophages (% CD68+) ([11]; BLZ945, Day 7): +2-fold
Phagocytic Capacity ([11]; BLZ945, Day 7): +5.0-fold
Total DAPI+ Cells ([11]; BLZ945, Day 7): −80%
Tumor Cells (% Olig2+) ([11]; BLZ945, Day 7): −77%
Vasculature (CD31 MVD) ([11]; BLZ945, Day 7): −17%
Apoptosis (% CC3+) ([11]; BLZ945 Large, Day 3): +9-fold
Macrophages (% CD68+) ([11]; BLZ945 Large, Day 3): +2-fold
Phagocytic Capacity ([11]; BLZ945 Large, Day 3): +7.1-fold
Total DAPI+ Cells ([11]; BLZ945 Large, Day 3): −40%
Tumor Cells (% Olig2+) ([11]; BLZ945 Large, Day 3): −14%
Apoptosis (% CC3+) ([11]; BLZ945 Large, Day 7): +2-fold
Macrophages (% CD68+) ([11]; BLZ945 Large, Day 7): +4-fold
Phagocytic Capacity ([11]; BLZ945 Large, Day 7): +6.0-fold
Total DAPI+ Cells ([11]; BLZ945 Large, Day 7): −65%
Tumor Cells (% Olig2+) ([11]; BLZ945 Large, Day 7): −73%
Vasculature (CD31 MVD) ([11]; BLZ945 Large, Day 7): −67%
level of apoptosis (CC3+) ([11]; earlier time point in particular): increase in apoptosis
Olig2 (tumor cell density) ([11]; vs vehicle controls): significantly reduced

CCNC(=O)c1cc(Oc2ccc3nc(N[C@@H]4CCCC[C@H]4O)sc3c2)ccn1 [Ig-B]
IC50 [1]: 13900 nM
IC50 [2]: 6 nM

Cn1cc(-c2cc(Oc3ccc4nc(N[C@@H]5CCCC[C@H]5O)sc4c3)ccn2)cn1 [Ih-A]
IC50 [1]: 740 nM
IC50 [2]: 0.9 nM

CCCn1cc(-c2cc(Oc3ccc4nc(N[C@@H]5CCCC[C@H]5O)sc4c3)ccn2)cn1 [Ih-C]
IC50 [1]: 1500 nM
IC50 [2]: 7 nM

Cn1cc(-c2cc(Oc3ccc4nc(N[C@H]5CCCC[C@@H]5O)sc4c3)ccn2)cn1 [Ih-D]
IC50 [1]: 20 nM
IC50 [2]: 1 nM
